According to PubChem BioAssay (NCI):
“And” between values parts separate entries of the source, which are not always exact repeats. Equal entries are not always repeated.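 Values below derive from 48-hour exposures of cells grown in 96-well plates, with endpoints linearly interpolated between the two concentrations bracketing the appropriate inhibition level. Abbreviation: GI50, concentration required for 50% inhibition of growth. TGI marks complete inhibition of growth.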

Legend:
Test in all cases: NCI-60 cell line screen, 48 h
OVCAR-4 ovarian = test system: OVCAR-4 ovarian
EKVX NSCLC = test system: EKVX NSCLC
NCI-H460 lung = test system: NCI-H460 lung
HCC-2998 colon = test system: HCC-2998 colon
786-0 renal = test system: 786-0 renal
BT-549 breast = test system: BT-549 breast
PC-3 prostate = test system: PC-3 prostate
MCF7 breast = test system: MCF7 breast
U251 CNS = test system: U251 CNS
HT29 colon = test system: HT29 colon

| Compound | TGI (OVCAR-4 ovarian) [µM] | TGI (EKVX NSCLC) | TGI (NCI-H460 lung) | TGI (HCC-2998 colon) [µM] | TGI (786-0 renal) | TGI (BT-549 breast) [µM] | TGI (PC-3 prostate) | TGI (MCF7 breast) | TGI (U251 CNS) | TGI (HT29 colon) [µM] | GI50 (EKVX NSCLC) | GI50 (NCI-H460 lung) | GI50 (HCC-2998 colon) | GI50 (786-0 renal) | GI50 (BT-549 breast) | GI50 (PC-3 prostate) | GI50 (MCF7 breast) | GI50 (U251 CNS) | GI50 (HT29 colon) | GI50 (OVCAR-4 ovarian) [µM] |
| --- | --- | --- | --- | --- | --- | --- | --- | --- | --- | --- | --- | --- | --- | --- | --- | --- | --- | --- | --- | --- |
| CC1(C)CC2C=C(C=O)C3(C=O)CC3(C)C2C1 (stereo not given) | 3.22 | 7.5 µM | 10.6 µM | 18.2 | 3.13 µM | 3.37 | 4.33 µM | 5.27 µM | 6.45 µM | 4.54 | – | – | – | – | – | – | – | – | – | – |
| CNc1ccc(-c2cc(=O)oc3ccc(Cl)cc23)cc1 | > 100 | > 100 µM | > 100 µM | 17.1 | > 100 µM | 3.02 | > 100 µM | > 100 µM | > 100 µM | 0.496 | 0.589 µM and 0.279 µM | 0.0487 µM and 0.0441 µM | 0.373 µM and 0.127 µM | 0.133 µM and 0.0442 µM | 0.102 µM and 0.044 µM | 0.226 µM and 0.064 µM | 0.229 µM and 0.151 µM | 0.175 µM and 0.0472 µM | 0.297 µM and 0.139 µM | – |
| C=C1CCC2C3(C)COC(c4ccc(SC)cc4)OC3CCC2(C)C1C/C=C1/C(=O)OCC1O (stereo not given) | 18.7 | 26.9 µM | 22.3 µM | 24.9 | 19.2 µM | 20.9 | 20.2 µM | 11.7 µM | 5.7 µM | 7.02 | 7.67 µM | 8.78 µM | 11.9 µM | 6.7 µM | 4.38 µM | 5.67 µM | 3.04 µM | 2.29 µM | 2.42 µM | 5.81 |
| COC(=O)c1ccc([N+](=O)[O-])c(O)c1 | > 100 | > 100 µM | > 100 µM | > 100 | > 100 µM | > 100 | > 100 µM | > 100 µM | > 100 µM | > 100 | – | – | – | – | – | – | – | – | – | – |
| Cc1ccccc1N=Nc1c(O)[nH]c2ccccc12 | > 100 | > 100 µM | > 100 µM | > 100 | > 100 µM | > 100 | > 100 µM | > 100 µM | > 100 µM | > 100 | – | – | – | – | – | – | – | – | – | – |
| Oc1cc(O)c2c(=S)cc(-c3ccc(Cl)cc3)oc2c1 | > 31.8 | 54.1 µM | 13.3 µM | 14.5 | 22.9 µM | 12.6 | 12.3 µM | 11.4 µM | 11.3 µM | 39.7 | 9.36 µM | 2.96 µM | 1.7 µM | 7.12 µM | 3.38 µM | 2.84 µM | 0.111 µM | 3.24 µM | 19.7 µM | 0.379 |
| N#Cc1c(NC(=O)CN2CCOCC2)sc2c1CCCC2 | > 25 | > 25 µM | > 25 µM | > 25 | > 25 µM | > 25 | > 25 µM | > 25 µM | > 25 µM | > 25 | > 25 µM | > 25 µM | > 25 µM | > 25 µM | > 25 µM | > 25 µM | > 25 µM | > 25 µM | > 25 µM | > 25 |
| O=C1/C(=C\c2coc3ccccc3c2=O)c2ccccc2N1c1c(Cl)cccc1Cl | > 100 | > 100 µM | 16.3 µM | > 100 | 33.7 µM | 35.3 | 30.5 µM | > 100 µM | 35.6 µM | > 100 | 2.82 µM | 2.05 µM | 5.33 µM | 3.1 µM | 2.83 µM | 1.35 µM | 3.21 µM | 1.45 µM | 3.05 µM | 3.66 |
| COc1cc([C@@H]2c3cc4c(cc3[C@H](O)[C@H]3COC(=O)[C@H]23)OCO4)cc(OC)c1OC | – | > 100 µM and 50 µM | > 100 µM and 50 µM and > 7.95 µM | – | 1.08 µM and 0.5 µM and < 0.215 µM | – | > 100 µM and 50 µM | > 100 µM and 10.3 µM | > 100 µM and 50 µM and > 7.6 µM | – | – | < 0.005 µM | < 0.005 µM | < 0.005 µM | < 0.01 µM | < 0.01 µM | < 0.01 µM | < 0.005 µM | < 0.01 µM | < 0.005 |
| Cc1cc(-c2nc(-c3ccc(OC(F)(F)F)cc3)no2)nn1Cc1ccnc(N2CCN(C3CC3)CC2)c1 | > 100 | > 51.6 µM | 55.3 µM | 24.5 | > 100 µM | > 52.6 | > 100 µM | > 42.7 µM | > 100 µM | > 56.9 | < 0.01 µM | 4.94 µM | 7.05 µM | 13.5 µM | – | 3.38 µM | – | 5.52 µM | 5.26 µM | < 0.01 |
| NC(=O)C(NC=O)c1ccccc1 (stereo not given) | > 100 | > 100 µM | > 100 µM | > 100 | > 100 µM | > 100 | > 100 µM | > 100 µM | > 100 µM | > 100 | – | – | – | – | – | – | – | – | – | – |
| C=C(C)[C@@H]1CCC2=C[C@@H](OC2=O)[C@@H](C(=C)C)C(=O)/C=C(/C)C(=O)C1 | > 100 | > 100 µM | 92.2 µM | 62.2 | > 100 µM | > 100 | 39.3 µM | > 100 µM | > 100 µM | > 100 | 52.4 µM | 29.1 µM | 26.2 µM | 35.5 µM | 44.8 µM | 8.79 µM | 35.3 µM | 33.4 µM | 41.8 µM | 71.6 |
| COc1cccc(C2C3=C(COC3=O)N(CCO)c3cc4c(cc32)OCCO4)c1 (stereo not given) | > 50 | > 50 µM | 1.19 µM | 0.242 | > 50 µM | > 10.9 | > 50 µM | > 50 µM | > 50 µM | 1.34 | 0.265 µM | 0.148 µM | 0.0957 µM | 0.198 µM | 0.255 µM | 0.12 µM | 0.0396 µM | 0.221 µM | 0.124 µM | 0.472 |
| C#COc1cccc(Nc2ncnc3ncc(NC(=O)CCl)cc23)c1 | > 62.5 | > 62.5 µM | > 62.5 µM | > 62.5 | > 62.5 µM | > 62.5 | > 62.5 µM | > 62.5 µM | > 34.5 µM | > 62.5 | > 62.5 µM | – | > 62.5 µM | 2.71 µM | > 62.5 µM | > 36.7 µM | > 16.6 µM | > 13.3 µM | – | > 62.5 |
